Patent US20210252175A1, “NOVEL COMPOUNDS FOR DIAGNOSIS” (AC IMMUNE SA, priority 2018, published 2021)
“Also recorded” adds a separate entry of the source. Read-outs that look alike come from different tables or passages of the source.

Assays:
[1] = target: T1, Aβ pathological aggregates present in the human AD insoluble fractions (Homo sapiens, UniProt P05067); assay: Radio-binding competition assay on human AD insoluble fraction; details: for Ki: radioligand [3H] Example 47 of WO2017/153601 at 7 nM
T1 construct: "4.7 g of frontal lobe tissue from post-mortem brain of one Alzheimer's disease (AD) patient"
T1 sequence (P05067 whole entry): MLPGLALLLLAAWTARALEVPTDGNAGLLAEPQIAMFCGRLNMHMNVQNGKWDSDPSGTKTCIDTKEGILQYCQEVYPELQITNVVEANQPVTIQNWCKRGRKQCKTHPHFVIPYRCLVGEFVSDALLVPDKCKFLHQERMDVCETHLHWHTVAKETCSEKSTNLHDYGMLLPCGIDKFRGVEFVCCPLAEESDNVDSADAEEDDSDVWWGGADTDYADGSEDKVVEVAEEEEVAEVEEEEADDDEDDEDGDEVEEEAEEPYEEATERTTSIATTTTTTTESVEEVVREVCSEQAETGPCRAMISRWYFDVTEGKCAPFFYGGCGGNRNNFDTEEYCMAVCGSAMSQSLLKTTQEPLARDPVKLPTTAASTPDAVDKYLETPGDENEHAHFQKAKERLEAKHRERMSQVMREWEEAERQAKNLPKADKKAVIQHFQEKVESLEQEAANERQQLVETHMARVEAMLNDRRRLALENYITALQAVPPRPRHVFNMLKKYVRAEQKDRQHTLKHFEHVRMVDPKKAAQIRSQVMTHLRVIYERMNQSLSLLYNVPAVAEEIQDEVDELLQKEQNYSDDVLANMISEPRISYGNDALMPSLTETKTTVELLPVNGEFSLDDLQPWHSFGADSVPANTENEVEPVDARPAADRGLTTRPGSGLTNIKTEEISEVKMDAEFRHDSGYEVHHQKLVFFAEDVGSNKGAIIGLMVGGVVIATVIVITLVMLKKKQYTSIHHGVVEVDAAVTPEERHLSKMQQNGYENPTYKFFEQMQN
Protocol: 4.7 g of frontal lobe tissue from post-mortem brain of one Alzheimer's disease (AD) patient were purchased from an external provider (Tissue Solutions Ltd., UK). The patient was a […] and died […]. The brain sample was collected 7.7 hours post-mortem and characterized for Braak disease stage (Braak, H.; Braak, E. Acta Neuropathol., 1991, 82, 239-259) as stage VI. For the preparation of the insoluble fractions, around 3 g of the AD human brain was thawed on ice and homogenized with 8.9 mL of homogenization buffer (0.75 M NaCl, 5 mM EDTA, 50 mM Tris-HCl, pH 7.5) supplemented with protease inhibitors (Complete; Roche 11697498001) in a glass Dounce homogenizer. The homogenization was performed at 4° C. The homogenate was transferred into polycarbonate centrifuge tubes (16×76 mm; Beckman 355603) and centrifuged at 100,000 g (38,000 RPM) in an ultracentrifuge (Beckman, XL100K) for 60 min at 4° C. using the pre-cooled 70.1 rotor (Beckman, 342184). Supernatants were discarded and pellets were re-suspended in 8.9 mL of homogenization buffer supplemented with 1% Triton X-100 (Sigma 93426) and processed with glass Dounce homogenizer at 4° C. The solution was then transferred into polycarbonate centrifuge bottles (16×76 mm; Beckman 355603) and centrifuged at 100,000 g (38,000 RPM) in an ultracentrifuge (Beckman, XL100K) for 60 min at 4° C. using the 70.1 Ti rotor. The process was repeated one more time (supernatants were discarded and pellets were re-suspended in 8.9 mL of homogenization buffer supplemented with 1% Triton X-100 and 1M sucrose processed with glass Dounce homogenizer at 4° C. The solution was then centrifuged at 100,000 g (38,000 RPM) for 60 min at 4° C. using the 70.1 Ti rotor). Supernatant was discarded and pellet was resuspended in 4 mL of PBS to obtain the insoluble fraction. The material was aliquoted and stored at −80° C. until use.
AD insoluble fractions diluted 1/100 were incubated in the presence of [^3H] Example 47 disclosed in WO2017/153601 used as Aβ reference binder, at a concentration of 7 nM and the example compounds of this invention were prepared at increasing concentrations in the range 0.4 nM to 2 μM for 120 minutes at 25° C. 90 μL of samples in duplicates were then filtered under vacuum on a GF/C filter plate (PerkinElmer 6005174) to trap the Aβ aggregates within the AD insoluble fractions with the bound radio-ligand, and washed five times with Tris 50 mM buffer pH 7-5. The GF/C filters were then vacuum-dried, 50 μL scintillation liquid (Ultimate Gold MB, PerkinElmer) was added in each well, and the filters were analyzed on a Microbeta2 device. Non-specific signal was determined with an excess of un-labeled ligand and specific binding was calculated by subtracting the non-specific signal from the total signal. Competition was calculated as percent, where 0% was defined as the specific binding in the presence of vehicle (0.1% DMSO in 50 mM Tris in 0.9% NaCl, 0.1% BSA) and 100% as the values obtained in the presence of excess cold Example 47 disclosed in WO2017/153601. The Ki values were calculated by nonlinear regression, one site specific binding using Prism V7 (GraphPad). Ki values to AD insoluble fraction were determined in independent experiments. Results of radio-binding competition assay on AD insoluble fraction are shown in Table 9 as measurements C and D. The Kd for the radioligand [^3H] Example 47 disclosed in WO2017/153601 on the AD insoluble fraction in measurements C and D was 8 nM.
Example compounds are ranked based on the measured Ki values to Aβ pathological aggregates present in the AD insoluble fractions.

[2] = target: T2, Recombinant human full-length wild-type aSyn fibrils (Homo sapiens, UniProt P37840); assay: Radio-binding competition assay on recombinant aSyn fibrils; details: for improvement of Ki value on aSyn fibrils compared to compounds 70 and 71 of WO2017/153601: head-to-head within the same measurement; for binding to aSyn fibrils in comparison to Examples 70 and 71 of WO2017/153601: comparison of Ki values of Table 9; for Kd: read-out: Kd of the radioligand on aSyn fibrils
T2 construct: Recombinant human full-length wild-type aSyn bacterially expressed; purchased rPeptide, US
Protocol: Recombinant human full-length wild-type aSyn bacterially expressed was obtained from a commercial provider (rPeptide, US). Protein preparation was transferred into polycarbonate centrifuge tubes (8×51 mm; Beckman 355657) and centrifuged at 100,000 g (38,000 rounds per minute, RPM) in an ultracentrifuge (Beckman, XL100K) for 60 min at 4° C. using the pre-cooled 50.4 Ti rotor (Beckman) to pellet any aggregated material. Supernatant was transferred into a sterile, low retention tube at a final concentration of 5 mg/mL and final volume of 0.5 mL in PBS. The protein was placed in a Thermomixer (Eppendorf) and incubated for 7 days at 37° C. with orbital shaking at 1000 rpm to generate aSyn fibrils.
Material containing aSyn fibrils was transferred into polycarbonate centrifuge tubes (8×51 mm; Beckman 355657) and centrifuged at 100,000 g (38,000 RPM) in an ultracentrifuge (Beckman, XL100K) for 60 min at 4° C. using the pre-cooled 50.4 Ti rotor. The supernatant containing still monomeric aSyn was transferred into new tubes and its concentration was determined. The pellet was resuspended with equal volume of PBS and subjected to further rounds of ultracentrifugation until the concentration obtained for the supernatant was below 0.1 mg/mL. The pellet obtained at the last round of ultracentrifugation containing aSyn fibrils was aliquoted and stored at −80° C. until use. Aggregated aSyn was used at a concentration of 1 μM in radiobinding assays.
Determination of the Binding Affinity (Ki) by Radio-Binding Competition Assay Recombinant aSyn fibrils at concentration of 1 μM were incubated with [^3H] Example 69 disclosed in WO2017/153601, used as aSyn reference binder, at concentrations between 25 nM and 35 nM. The example compounds of this invention were incubated at increasing concentrations in the range 0.4 nM to 2 μM for 120 minutes at 25° C. 90 μL of samples in duplicates were then filtered under vacuum on a GF/C filter plate (PerkinElmer 6005174) to trap the aSyn fibrils with the bound radio-ligand, and washed five times with Tris 50 mM buffer pH 7-5. The GF/C filters were then vacuum-dried, 50 μL scintillation liquid (Ultimate Gold MB, PerkinElmer) was added in each well, and the filters were analyzed on a Microbeta2 device. Non-specific signal was determined with an excess of un-labeled ligand and specific binding was calculated by subtracting the non-specific signal from the total signal. Competition was calculated as percent, where 0% was defined as the specific binding in the presence of vehicle (0.1% DMSO in 50 mM Tris in 0.9% NaCl, 0.1% BSA) and 100% as the values obtained in the presence of excess cold Example 69 disclosed in WO2017/153601. All measurements were performed with at least two technical replicates. The K; values were calculated by nonlinear regression, one site specific binding using Prism V7 (GraphPad). Ki values to recombinant aSyn fibrils were determined in independent experiments and two different batches of aSyn fibrils, derived from the same source but different lots of monomeric aSyn. Results of radio-binding competition assay for the example compounds tested in parallel within the same experiment are shown in Table 9 as measurements A and B. Measurement A was performed on one batch of aSyn fibrils; the Kd for the radioligand [^3H] Example 69 disclosed in WO20171153601 for this batch of aSyn fibrils was 32 nM. Measurement B was performed on second batch of aSyn fibrils, the corresponding Kd for the radioligand [^3H] Example 69 disclosed in WO2017/153601 for the second batch of aSyn fibrils was 60 nM.

[3] = measurement C, read-out: Ki on human AD-Insoluble Fraction, measurement C
[4] = measurement A, first batch of aSyn fibrils, radioligand [3H] Example 69 of WO2017/153601 (Kd 32 nM), read-out: Ki on aSyn Fibrils, measurement A
[5] = measurement B, second batch of aSyn fibrils, radioligand [3H] Example 69 of WO2017/153601 (Kd 60 nM), read-out: Ki on aSyn Fibrils, measurement B
[6] = measurement D, read-out: Ki on human AD-Insoluble Fraction, measurement D

`CN1CCN(c2cc3sc(-c4ccc(N5CC[C@@H](F)C5)nc4)nc3cn2)C(=O)C1` [Example 1] was tested, and the Ki [1, 3] was greater than 500 nM, the “improvement of Ki value on aSyn fibrils compared to compounds 70 and 71 of WO2017/153601” value [2] was “improved by at least twofold” and the Ki [2, 4] was 14.7 nM. The Ki [2, 5] was 31.9 nM.

In the case of `CN1CCN(c2cc3sc(-c4ccc(N5CC[C@H](F)C5)nc4)nc3cn2)C(=O)C1` [Example 2], the Ki [1, 3] is reported as greater than 500 nM, the Ki [1, 6] is reported as greater than 500 nM and the “improvement of Ki value on aSyn fibrils compared to compounds 70 and 71 of WO2017/153601” value [2] is reported as “improved by at least twofold”. It also gave a Ki [2, 4] of 12.2 nM and a Ki [2, 5] of 31.9 nM.

With `CN1CCN(c2cc3sc(-c4ccc(N5CC(F)C5)nc4)nc3cn2)C(=O)C1` [Example 3A] the Ki [1, 6] was greater than 500 nM, the “binding to aSyn fibrils in comparison to Examples 70 and 71 of WO2017/153601” value (shortened to “binding to aSyn fibrils in comparison”) [2] was “similar” and the Ki [2, 5] was 96.8 nM.

`CNc1ncc(-c2nc3cnc(N4CCN(C)CC4=O)cc3s2)cc1F` [Example 3B] was tested, and the Ki [1, 3] was 50 to 500 nM, the Ki [1, 6] was 50 to 500 nM and the “binding to aSyn fibrils in comparison” value [2] was “improved”. For the same compound, the Ki [2, 4] was 27.8 nM.

`CN1CCN(c2cc3sc(-c4cnc(N5CCC5)c(F)c4)nc3cn2)C(=O)C1` [Example 3C] was tested, and the Ki [1, 6] was greater than 500 nM, the “binding to aSyn fibrils in comparison” value [2] was “improved; also recorded: considerably greater affinity” and the Ki [2, 4] was 5.8 nM.

`CN1CCN(c2cc3sc(-c4cnc(N5CC[C@@H](F)C5)nc4)nc3cn2)C(=O)C1` [Example 3D] was tested, and the Ki [1, 6] was greater than 500 nM, the “binding to aSyn fibrils in comparison” value [2] was “improved” and the Ki [2, 4] was 38.4 nM.

`CN1CCN(c2ncc3nc(-c4ccc(N5CC[C@@H](F)C5)nc4)sc3n2)C(=O)C1` [Example 3] was tested, and the Ki [1, 3] was greater than 500 nM, the Ki [1, 6] was greater than 500 nM and the Ki [2, 5] was 28.3 nM.

For `CN1CCN(c2ccc3nc(-c4ccc(N5CC[C@@H](F)C5)nc4)sc3n2)C(=O)C1` [Example 4], the “improvement of Ki value on aSyn fibrils compared to compounds 70 and 71 of WO2017/153601” value [2] was “improved by at least twofold”.

Compound `CN1CCN(c2ncc3nc(-c4ccc(N5CC[C@H](F)C5)nc4)sc3n2)C(=O)C1` [Example 4] has a Ki [1, 6] greater than 500 nM and a Ki [2, 5] of 52.8 nM.

Work on `CN1CCN(c2ccc3nc(-c4ccc(N5CC[C@@H](F)C5)nc4)sc3n2)C(=O)C1` [Example 5] yielded a Ki [1, 6] greater than 500 nM and a Ki [2, 5] of 41.7 nM.

In the case of `CN1CCN(c2ccc3nc(-c4ccc(N5CC[C@H](F)C5)nc4)sc3n2)C(=O)C1` [Example 5], the “improvement of Ki value on aSyn fibrils compared to compounds 70 and 71 of WO2017/153601” value [2] is reported as “improved by at least twofold”.

`CN1CCN(c2ncc3nc(-c4ccc(N5CC(F)C5)nc4)sc3n2)C(=O)C1` [Example 7A] was tested, and the Ki [1, 6] was greater than 500 nM, the “binding to aSyn fibrils in comparison” value [2] was “similar” and the Ki [2, 4] was 55.3 nM.

For `CN1CCN(c2ncc3nc(-c4ccc(N5CCC[C@@H](F)C5)nc4)sc3n2)C(=O)C1` [Example 7B], the Ki [1, 6] was greater than 500 nM, the “binding to aSyn fibrils in comparison” value [2] was “improved” and the Ki [2, 4] was 31.3 nM.

In the case of `CN1CCN(c2ncc3nc(-c4ccc(N5CCC[C@H](F)C5)nc4)sc3n2)C(=O)C1` [Example 7C], the Ki [1, 3] is reported as greater than 500 nM, the Ki [1, 6] is reported as greater than 500 nM and the “binding to aSyn fibrils in comparison” value [2] is reported as “improved”. The Ki [2, 4] was 34.2 nM.

In the case of `CN1CCN(c2ccc3nc(-c4ccc(N5CC[C@@H](F)C5)nc4)sc3c2)C(=O)C1` [Example 70 of WO2017/153601, reference compound], the Ki [1, 3] is reported as greater than 500 nM, the Ki [2, 4] is reported as 39 nM and the Ki [2, 5] is reported as 97.7 nM.

With `CN1CCN(c2ccc3nc(-c4ccc(N5CC[C@H](F)C5)nc4)sc3c2)C(=O)C1` [Example 71 of WO2017/153601, reference compound] the Ki [1, 3] was greater than 500 nM, the Ki [2, 4] was 46.9 nM and the Ki [2, 5] was 73.7 nM.

In the case of `[3H]C([3H])([3H])Nc1ccc(-c2ccc3cc(-c4cccnc4)sc3n2)cn1` [[^3H] Example 47 of WO2017/153601, reference compound], the Kd ([1]; measurements C and D, read-out: Kd of the radioligand on the AD insoluble fraction) is reported as 8 nM.

Work on `[3H]C([3H])([3H])N1CCN(c2ccc3nc(-c4ccc(N5CCCC5)nc4)sc3c2)C(=O)C1` [[^3H] Example 69 of WO2017/153601, reference compound] yielded a Kd ([2]; batch of aSyn fibrils of measurement A) of 32 nM and a Kd ([2]; second batch of aSyn fibrils, measurement B) of 60 nM.
